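Protocol summary: plate cells (96-well), add compound at 5 concentrations, incubate 48 h, interpolate endpoints linearly. The concentration for 50% growth inhibition is given as GI50. The concentration for full growth arrest is given as TGI.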
Columns and labels:
Test in all cases: NCI tumour cell line growth inhibition, 48 h
SF-539 CNS = tested on: SF-539 CNS
HOP-92 NSCLC = tested on: HOP-92 NSCLC
OVCAR-3 ovarian = tested on: OVCAR-3 ovarian
SW-620 colon = tested on: SW-620 colon
SK-OV-3 ovarian = tested on: SK-OV-3 ovarian
CCRF-CEM leukemia = tested on: CCRF-CEM leukemia
K-562 leukemia = tested on: K-562 leukemia
IGROV1 ovarian = tested on: IGROV1 ovarian
SF-295 CNS = tested on: SF-295 CNS
NCI/ADR-RES ovarian = tested on: NCI/ADR-RES ovarian
OVCAR-4 ovarian = tested on: OVCAR-4 ovarian
A498 renal = tested on: A498 renal
HS 578T breast = tested on: HS 578T breast
U251 CNS = tested on: U251 CNS
HCC-2998 colon = tested on: HCC-2998 colon
HOP-62 NSCLC = tested on: HOP-62 NSCLC
MDA-MB-468 breast = tested on: MDA-MB-468 breast
MALME-3M melanoma = tested on: MALME-3M melanoma
RPMI-8226 leukemia = tested on: RPMI-8226 leukemia
SF-268 CNS = tested on: SF-268 CNS
MDA-MB-435 = tested on: MDA-MB-435
ACHN renal = tested on: ACHN renal
SK-MEL-2 melanoma = tested on: SK-MEL-2 melanoma
CAKI-1 renal = tested on: CAKI-1 renal
BT-549 breast = tested on: BT-549 breast
LOX IMVI melanoma = tested on: LOX IMVI melanoma
HCT-15 colon = tested on: HCT-15 colon
EKVX NSCLC = tested on: EKVX NSCLC
SK-MEL-28 melanoma = tested on: SK-MEL-28 melanoma
SNB-75 CNS = tested on: SNB-75 CNS
T-47D breast = tested on: T-47D breast
786-0 renal = tested on: 786-0 renal
UACC-62 melanoma = tested on: UACC-62 melanoma
NCI-H522 lung = tested on: NCI-H522 lung
NCI-H23 lung = tested on: NCI-H23 lung
MCF7 breast = tested on: MCF7 breast
SN12C renal = tested on: SN12C renal
TK-10 renal = tested on: TK-10 renal
MDA-MB-231 breast = tested on: MDA-MB-231 breast
KM12 colon = tested on: KM12 colon
OVCAR-5 ovarian = tested on: OVCAR-5 ovarian
RXF 393 renal = tested on: RXF 393 renal
A549 NSCLC = tested on: A549 NSCLC
SK-MEL-5 melanoma = tested on: SK-MEL-5 melanoma
NCI-H226 lung = tested on: NCI-H226 lung
COLO 205 colon = tested on: COLO 205 colon
NCI-H460 lung = tested on: NCI-H460 lung
OVCAR-8 ovarian = tested on: OVCAR-8 ovarian
SNB-19 CNS = tested on: SNB-19 CNS
UO-31 renal = tested on: UO-31 renal

Cc1ccc(/C(CSc2nnc(-c3c[nH]c4ccccc34)n2-c2ccccc2)=N/O)cc1
GI50 (SF-539 CNS): 2.06 µM
TGI (SF-539 CNS): 4.41 µM
GI50 (HOP-92 NSCLC): 11.9 µM
TGI (HOP-92 NSCLC): 37.4 µM
GI50 (OVCAR-3 ovarian): 4.26 µM
TGI (OVCAR-3 ovarian): 25.5 µM
GI50 (SW-620 colon): 1.79 µM
TGI (SW-620 colon): 3.55 µM
GI50 (SK-OV-3 ovarian): 1.68 µM
TGI (SK-OV-3 ovarian): 3.64 µM
GI50 (CCRF-CEM leukemia): 2.14 µM
TGI (CCRF-CEM leukemia): 4.98 µM
GI50 (K-562 leukemia): 2.01 µM
TGI (K-562 leukemia): 4.97 µM
GI50 (IGROV1 ovarian): 2.09 µM
TGI (IGROV1 ovarian): 4.35 µM
GI50 (SF-295 CNS): 1.64 µM
TGI (SF-295 CNS): 3.18 µM
GI50 (NCI/ADR-RES ovarian): 2 µM
TGI (NCI/ADR-RES ovarian): 3.9 µM
GI50 (OVCAR-4 ovarian): 1.75 µM
TGI (OVCAR-4 ovarian): 3.51 µM
GI50 (A498 renal): 24.8 µM
TGI (A498 renal): 89.1 µM
GI50 (HS 578T breast): 2.07 µM
TGI (HS 578T breast): 4.82 µM
GI50 (U251 CNS): 8.22 µM
TGI (U251 CNS): > 100 µM
GI50 (HCC-2998 colon): 2.09 µM
TGI (HCC-2998 colon): 3.93 µM
GI50 (HOP-62 NSCLC): 1.69 µM
TGI (HOP-62 NSCLC): 3.42 µM
GI50 (MDA-MB-468 breast): 1.5 µM
TGI (MDA-MB-468 breast): 2.91 µM
GI50 (MALME-3M melanoma): 2.26 µM
TGI (MALME-3M melanoma): 5.57 µM
GI50 (RPMI-8226 leukemia): 2.05 µM
TGI (RPMI-8226 leukemia): 4.81 µM
GI50 (SF-268 CNS): 1.99 µM
TGI (SF-268 CNS): 4.66 µM
GI50 (MDA-MB-435): 1.63 µM
TGI (MDA-MB-435): 3.05 µM
GI50 (ACHN renal): 1.79 µM
TGI (ACHN renal): 3.35 µM
GI50 (SK-MEL-2 melanoma): 2.88 µM
TGI (SK-MEL-2 melanoma): 8.96 µM
GI50 (CAKI-1 renal): 1.63 µM
TGI (CAKI-1 renal): 3.06 µM
GI50 (BT-549 breast): 1.59 µM
TGI (BT-549 breast): 3.03 µM
GI50 (LOX IMVI melanoma): 1.75 µM
TGI (LOX IMVI melanoma): 3.17 µM
GI50 (HCT-15 colon): 1.75 µM
TGI (HCT-15 colon): 3.34 µM
GI50 (EKVX NSCLC): 2.15 µM
TGI (EKVX NSCLC): 5.58 µM
GI50 (SK-MEL-28 melanoma): 5.67 µM
TGI (SK-MEL-28 melanoma): 38.7 µM
GI50 (SNB-75 CNS): 1.4 µM
TGI (SNB-75 CNS): 2.77 µM
GI50 (T-47D breast): 2.07 µM
TGI (T-47D breast): 4.75 µM
GI50 (786-0 renal): 10 µM
TGI (786-0 renal): 31.4 µM
GI50 (UACC-62 melanoma): 1.69 µM
TGI (UACC-62 melanoma): 3.26 µM
GI50 (NCI-H522 lung): 2.24 µM
TGI (NCI-H522 lung): 6.04 µM
GI50 (NCI-H23 lung): 10.1 µM
TGI (NCI-H23 lung): 52.2 µM
GI50 (MCF7 breast): 2.42 µM
TGI (MCF7 breast): 7.01 µM
GI50 (SN12C renal): 2.33 µM
TGI (SN12C renal): 6.8 µM
GI50 (TK-10 renal): 1.9 µM
TGI (TK-10 renal): 3.87 µM
GI50 (MDA-MB-231 breast): 1.77 µM
TGI (MDA-MB-231 breast): 3.33 µM
GI50 (KM12 colon): 8.65 µM
TGI (KM12 colon): > 100 µM
GI50 (OVCAR-5 ovarian): 1.69 µM
TGI (OVCAR-5 ovarian): 3.11 µM
GI50 (RXF 393 renal): 1.85 µM
TGI (RXF 393 renal): 3.76 µM
GI50 (A549 NSCLC): 3.55 µM
TGI (A549 NSCLC): 69.7 µM
GI50 (SK-MEL-5 melanoma): 4.76 µM
TGI (SK-MEL-5 melanoma): 48.1 µM
GI50 (NCI-H226 lung): 1.63 µM
TGI (NCI-H226 lung): 3.36 µM
GI50 (COLO 205 colon): 3.77 µM
TGI (COLO 205 colon): 37.4 µM
GI50 (NCI-H460 lung): 3.18 µM
TGI (NCI-H460 lung): 12.2 µM
GI50 (OVCAR-8 ovarian): 2.19 µM
TGI (OVCAR-8 ovarian): 4.89 µM
GI50 (SNB-19 CNS): 1.87 µM
TGI (SNB-19 CNS): 3.97 µM
GI50 (UO-31 renal): 1.82 µM
TGI (UO-31 renal): 4.15 µM

Reference: PubChem BioAssay (NCI)
